Results on 18 compounds are retold here after patent US4933348A, “Heterocyclic compounds” (priority 1985, dated 1990).

The test system of experiment [1] is SRS-A-induced contraction of guinea-pig ileum. The experiment in a line: Inhibition of SRS-A-induced contraction of isolated guinea-pig ileum. Details: species or system guinea-pig (male Hartley). The note with it: submaximal concentration of SRS-A (derived from guinea pig lung), incubation 20 minutes, 37° C., read-out: IC 50 (M), Ileum, Anti-SRS-A. Here is the method: (§1) (1) Inhibition of SRS-A- and LTD4 -induced contraction of guinea-pig ileum and trachea
(§2) Methods: Male Hartley guinea-pigs, weighing 500 to 700 g were sacrificed by a blow on the head The ileum and tracheal strips prepared according to the method of Constantine (Constantine, J. W., J. Pharm Pharmacol., 17, 384 (1965)) were suspended with 1.0 g tension in an organ bath containing 10 ml of Tyrode solution equilibrated with a mixture of 95% O2 and 5% CO2 at 37° C. The tissues were equilibrated for 60 minutes; during this period the Tyrode solution was replaced every 15 minutes and the loading tension was adjusted to 1.0 g. The developed tension of the tissues was measured isometrically with a strain gauge transducer, and recorded on a Recticorder. Both the contractile response of the ileum to submaximal concentration of SRS-A (derived from guinea pig lung) and tracheal response to 10^-8 M LTD4 were recorded in the absence and then in the presence of various concentrations of test compounds. The incubation time of the compounds was 20 minutes.

The test system of experiment [2] is LTD4-induced contraction of guinea-pig trachea. The experiment in a line: Inhibition of LTD4-induced contraction of isolated guinea-pig trachea. On the set-up: species or system guinea-pig (male Hartley). The note with it: 10^-8 M LTD4; for inhibition of the contractions induced by LTD4 (in words): isolated guinea pig trachea; for IC50: isolated guinea-pig trachea, incubation 20 minutes, 37° C., read-out: IC 50 (M), Trachea, Anti-LTD4. As to the method:
as §1, §2

For experiment [3], the system named is LTD4-enhanced vascular permeability. Kind of experiment: Inhibition of LTD4-enhanced vascular permeability in guinea-pig. In kind it is in vivo, guinea-pig (male Hartley). The note with it: for ED50: Cavia porcellus, po, 30 minutes before LTD4 injection (5 ng intradermal); for anti-leukotriene effect by oral route (in words) / inhibition of LTD4-enhanced vascular permeability (in words): p.o.; for inhibition of LTD4-enhanced vascular permeability (in words): 30 minutes before LTD4 injection. As to the method: (2) Inhibition of LTD4 -enhanced vascular permeability in guinea-pig
Method: Male Hartley quinea-pigs weighing 270 to 305 g, starved for 16 hours, were intradermally injected 5 ng LTD4 in a volume of 0.1 ml into two sites on the shaved back. In addition, 0.1 ml of vehicle was injected intradermally in each animal to see non-specific irritation. One ml of saline containing 1% Evans blue was intravenously injected 2 minutes before LTD4 injection. Animals were sacrificed 30 minutes after LTD4 injection. The leaked dye at the site of LTD4 or vehicle injection was extracted according to the method of Harada et al. (Harada, M. et al., J. Pharm. Pharmacol., 23, 218 (1971)) and measured photometrically at 620 nm. The LTD4 -induced skin reaction was expressed as a difference in the amount of dye between LTD4 and vehicle. Test compounds were orally administered 30 minutes before LTD4 injection.

As for `CCCc1c(CSc2nnc(SCCCSCC(=O)O)s2)ccc(C(C)=O)c1O` [Example 32, [[3-[[5-[(4-acetyl-3-hydroxy-2-propylbenzyl)thio]-1,3,4-thiadiazol-2-yl]thio]propyl]thio]acetic acid], the IC50 amounted to 1.5e-10 M in experiment [1] and 3e-09 M in experiment [2]. The “inhibition of the contractions induced by LTD4 (in words)” value (“inhibition of the contractions induced” for short) in experiment [2] is listed as “potently inhibited”.

In the case of `CCCc1c(CSc2nccc(O)n2)ccc(C(C)=O)c1O` [Example 14, 2-[(4-acetyl-3-hydroxy-2-propylbenzyl)thio]-4-hydroxypyrimidine], in experiment [1], the IC50 was determined as 5e-08 M.

For `CCCc1c(CSc2nnc(SCCCS(=O)(=O)CC(=O)O)s2)ccc(C(C)=O)c1O` [Example 36, [3-[[5-[(4-acetyl-3-hydroxy-2-propylbenzyl)thio]-1,3,4-thiadiazol-2-yl]thio]propylsulfonyl]acetic acid], the IC50 in experiment [1] was 1.1e-09 M. In experiment [2], the “inhibition of the contractions induced” value is reported as “potently inhibited” and the IC50 amounted to 2.9e-09 M.

As to `CCCc1c(CSc2nnc(SCc3ccc(CCC(=O)O)cc3)s2)ccc(C(C)=O)c1O` [Example 46, 3-[p-[[[5-[(4-acetyl-3-hydroxy-2-propylbenzyl)thio]-1,3,4-thiadiazol-2-yl]thio]methyl]phenyl]propionic acid], the IC50 in experiment [1] came to 3.1e-08 M.

With `CCCc1c(CSc2nnc(SCCCCCC(=O)OCC)s2)ccc(C(C)=O)c1O` [Example 10, ethyl 6-[[5-[(4-acetyl-3-hydroxy-2-propylbenzyl)thio]-1,3,4-thiadiazol-2-yl]thio]hexanate], the IC50 in experiment [1] is 5.1e-08 M.

Take `CCCc1c(CSc2nnc(SCCCCCC(=O)O)s2)ccc(C(C)=O)c1O` [Example 12, 6-[[5-[(4-acetyl-3-hydroxy-2-propylbenzyl)thio]-1,3,4-thiadiazol-2-yl]thio]hexanoic acid]: the IC50 in experiment [1] worked out at 4e-09 M.

For the compound `CCCc1c(CSc2nnc(NC(=O)CCC(=O)O)s2)ccc(C(C)=O)c1O` [Example 24, 4-[[5-[(4-acetyl-3-hydroxy-2-propylbenzyl)thio]-1,3,4-thiadiazol-2-yl]amino]-4-oxobutyric acid], in experiment [1], the IC50 amounted to 3.3e-09 M.

In the case of `CCCc1c(CSc2nnc(SCc3ccc(OC(C)C(=O)O)cc3)s2)ccc(C(C)=O)c1O` (stereo not shown) [Example 34, 2-[p-[[[5-[(4-acetyl-3-hydroxy-2-propylbenzyl)thio]-1,3,4-thiadiazol-2-yl]thio]methyl]phenoxy]propionic acid], in experiment [3], the ED50 worked out at 4.2 mg/kg.

Regarding `CCCc1c(CSc2nnc(SCCCCC(=O)O)s2)ccc(C(C)=O)c1O` [Example 11, 5-[[5-[(4-acetyl-3-hydroxy-2-propylbenzyl)thio]-1,3,4-thiadiazol-2-yl]thio]valeric acid], the IC50 in experiment [1] was determined as 9.1e-09 M.

As for `CCCc1c(CSc2nnc(SCCC[S+]([O-])CC(=O)O)s2)ccc(C(C)=O)c1O` (stereo not shown) [Example 35, [3-[[5-[(4-acetyl-3-hydroxy-2-propylbenzyl)thio]-1,3,4-thiadiazol-2-yl]thio]propylsulfinyl]acetic acid], the results for the IC50 in experiment [1] and in experiment [2] were 1.1e-08 M and 7.8e-09 M, respectively. Moreover, the “inhibition of the contractions induced” value in experiment [2] is “potently inhibited”.

`CCCc1c(CSc2nnc(NC(=O)C(=O)O)s2)ccc(C(C)=O)c1O` [Example 22, [5-[(4-acetyl-3-hydroxy-2-propylbenzyl)thio]-1,3,4-thiadiazol-2-yl]oxamidic acid]: the IC50 in experiment [1] turned out to be 2.2e-08 M.

With `CCCc1c(CSc2nnc(SCCCC(=O)O)s2)ccc(C(C)=O)c1O` [Example 4, 4-[[5-[(4-acetyl-3-hydroxy-2-propylbenzyl)thio]-1,3,4-thiadiazol-2-yl]thio]butyric acid], the IC50 in experiment [1] was 4.1e-09 M.

Take `CCCc1c(CSc2nnc(SCCCCCCC(=O)O)s2)ccc(C(C)=O)c1O` [Example 13, 7-[[5-[(4-acetyl-3-hydroxy-2-propylbenzyl)thio]-1,3,4-thiadiazol-2-yl]thio]heptanoic acid]: in experiment [1], the IC50 was 2.1e-08 M.

As to `CCCc1c(CSc2nnc(SCc3ccc(OCC(=O)O)cc3)s2)ccc(C(C)=O)c1O` [Example 33, [p-[[[5-[(4-acetyl-3-hydroxy-2-propylbenzyl)thio]-1,3,4-thiadiazol-2-yl]thio]methyl]phenoxy]acetic acid], in experiment [1], the IC50 was 2.9e-10 M. Besides, in experiment [2], the “inhibition of the contractions induced” value was “potently inhibited” and the IC50 was 5.4e-08 M.

Take `CCCc1c(CSc2nnc(SCc3ccc(C(=O)O)cc3)s2)ccc(C(C)=O)c1O` [Example 37, p-[[5-[(4-acetyl-3-hydroxy-2-propylbenzyl)thio]-1,3,4-thiadiazol-2-yl]thiomethyl]benzoic acid]: the IC50 in experiment [1] was 3.6e-09 M. Moreover, in experiment [3], the ED50 worked out at 7 mg/kg, the “anti-leukotriene effect by oral route (in words)” value is given as “potent anti-leukotriene effect” and the “inhibition of LTD4-enhanced vascular permeability (in words)” value is reported as “dose-dependently inhibited”. In experiment [2], the “inhibition of the contractions induced” value is reported as “potently inhibited” and the IC50 came out at 1.1e-08 M.

With `CCCc1c(CSc2snc(O)c2C(=O)O)ccc(C(C)=O)c1O` [Example 44, 5-[(4-acetyl-3-hydroxy-2-propylbenzyl)thio]-3-hydroxy-4-isothiazolecarboxylic acid], in experiment [1], the IC50 came to 4.5e-08 M. In addition, in experiment [2], the “inhibition of the contractions induced” value is “potently inhibited” and the IC50 was determined as 1.9e-07 M.

`CCCc1c(CSc2nnc(SCc3ccc(CSCC(=O)O)cc3)s2)ccc(C(C)=O)c1O` [Example 43, [[p-[[[5-[(4-acetyl-3-hydroxy-2-propylbenzyl)thio]-1,3,4-thiadiazol-2-yl]thio]methyl]benzyl]thio]acetic acid]: the IC50 in experiment [1] came to 4.7e-09 M; in experiment [2] it was 3.8e-09 M. Moreover, the “inhibition of the contractions induced” value in experiment [2] was “potently inhibited”.

Turning to `CCCc1c(CSc2nnc(SCC(=O)O)s2)ccc(C(C)=O)c1O` [Example 2, [[5-[(4-acetyl-3-hydroxy-2-propylbenzyl)thio]-1,3,4-thiadiazol-2-yl]thio]-acetic acid], the IC50 in experiment [1] was 4.2e-08 M. Further, in experiment [3], the ED50 is 11.3 mg/kg, the “anti-leukotriene effect by oral route (in words)” value is given as “potent anti-leukotriene effect” and the “inhibition of LTD4-enhanced vascular permeability (in words)” value was “dose-dependently inhibited”. In experiment [2], the “inhibition of the contractions induced” value was “potently inhibited” and the IC50 came to 4e-08 M.

Usually ED50 stands for the midpoint of the dose-response relation.
